Experimental data from patent US6740335B1, “Liposomal camptothecin formulations” (priority 1997, dated 2004).

Tests used:
MDA-MB-468 (Breast) = test: 3H-thymidine incorporation cytotoxicity assay, MDA-MB-468; assay type: cell-based, human; settings: MDA-MB-468, 42 h
Experimental: (§1) In vitro efficacy screening has been performed using GI147211 and liposomal formulations of GI147211. […] Standard tumor cell-based cytototoxicity assays assessing ^3H-thymidine incorporation were performed.
(§2) Tumor cells were seeded into 96-well tissue culture plates (1×10^4 cells/well)≡4 h prior to experimentation. […] Positive and negative (Tris treated) control groups were included on each assay plate. Tumor cells were then labeled with 0.25 μCi of [methyl-^3H] thymidine and incubated for 42 h under tissue culture conditions (37° C., 5% CO2, 100% relative humidity), except for C6, U251, A673 and B16-F1 cells which were incubated for 24 h. Cells were then lysed, harvested onto glass-fiber filters and unincorporated [methyl-^3H] thymidine removed by filter washing. Filters were processed for scintillation counting and cpm-^3H/well determined. […] Data are presented from multiple sets of experimentation, involving multiple liposomal formulations of GI147211.

MCF-7 (Breast) = test: 3H-thymidine incorporation cytotoxicity assay, MCF-7; assay type: cell-based, human; settings: MCF-7, 42 h
Experimental: as §1, §2

U251 (Glioblastoma) = test: 3H-thymidine incorporation cytotoxicity assay, U251; assay type: cell-based, human; settings: U251, 24 h
Experimental: as §1, §2

[1] = tested on: KBV (oralpharyngial carcinoma, vincristine resistant phenotype); test: 3H-thymidine incorporation cytotoxicity assay, KBV; assay type: cell-based, human; settings: 42 h
Experimental: as §1, §2

U937 (Lymphoma) = test: 3H-thymidine incorporation cytotoxicity assay, U937; assay type: cell-based, human; settings: U937, 42 h
Experimental: as §1, §2

A673 (Rhabdomyosarcoma) = test: 3H-thymidine incorporation cytotoxicity assay, A673; assay type: cell-based, human; settings: A673, 24 h
Experimental: as §1, §2

[2] = tested on: H460 (Lung, Non-Small Cell); test: 3H-thymidine incorporation cytotoxicity assay, H460; assay type: cell-based, human; settings: H460, 42 h
Experimental: as §1, §2

HT-29 (Colon) = test: 3H-thymidine incorporation cytotoxicity assay, HT-29; assay type: cell-based, human; settings: HT-29, 42 h
Experimental: as §1, §2

[3] = tested on: SKOV-3 (ovarian carcinoma); test: 3H-thymidine incorporation cytotoxicity assay, SKOV-3; assay type: cell-based, human; settings: SKOV-3, 42 h
Experimental: as §1, §2

ES2 Tumor Xenograft = test: Repeat dose efficacy at equal toxic doses, ES2 xenograft; settings: ES2, 16 mg/kg, days 1, 8 and 15
Experimental: In all the studies performed, subcutaneous tumors implanted on the anterior flank of nude mice were allowed to grow to an established size of 200+/−50 mm^3 prior to dosing drugs.
Drugs were dosed on days 1,8 and 15.

BT-20 (Breast) = test: 3H-thymidine incorporation cytotoxicity assay, BT-20; assay type: cell-based, human; settings: BT-20, 42 h
Experimental: as §1, §2

LOX (melanoma) = test: 3H-thymidine incorporation cytotoxicity assay, LOX; assay type: cell-based, human; settings: 42 h
Experimental: as §1, §2

LS-513 (Cecum) = test: 3H-thymidine incorporation cytotoxicity assay, LS-513; assay type: cell-based, human; settings: LS-513, 42 h
Experimental: as §1, §2

[4] = tested on: B16-F1 (Melanoma, murine); test: 3H-thymidine incorporation cytotoxicity assay, B16-F1; assay type: cell-based; settings: B16-F1, 24 h
Experimental: as §1, §2

U87-MG (Astrocytoma) = test: 3H-thymidine incorporation cytotoxicity assay, U87-MG; assay type: cell-based, human; settings: 42 h
Experimental: as §1, §2

ES-2 (ovarian carcinoma) = test: 3H-thymidine incorporation cytotoxicity assay, ES-2; assay type: cell-based, human; settings: ES-2, 42 h
Experimental: as §1, §2

[5] = tested on: DU-145 (prostate carcinoma); test: 3H-thymidine incorporation cytotoxicity assay, DU-145; assay type: cell-based, human; settings: DU-145, 42 h
Experimental: as §1, §2

[6] = tested on: KB (oralpharyngial carcinoma); test: 3H-thymidine incorporation cytotoxicity assay, KB; assay type: cell-based, human; settings: 42 h
Experimental: as §1, §2

CC[C@@]1(O)C(=O)OCc2c1cc1n(c2=O)Cc2cc3c(CN(C)C)c(O)ccc3nc2-1 [Topotecan]
Median IC50 (MDA-MB-468 (Breast)): 0.0473 µg/mL
Median IC50 (MCF-7 (Breast)): 0.23 µg/mL
Median IC50 (U251 (Glioblastoma)): 0.0131 µg/mL
Median IC50 [1]: 0.611 µg/mL
Median IC50 (U937 (Lymphoma)): 0.00903 µg/mL
Median IC50 (A673 (Rhabdomyosarcoma)): 0.00604 µg/mL
Median IC50 [2]: 0.0209 µg/mL
Median IC50 (HT-29 (Colon)): 0.00415 µg/mL
Median IC50 [3]: 0.00518 µg/mL
Cures (ES2 Tumor Xenograft): 0
Log Cell Kill (ES2 Tumor Xenograft): 0.58
Maximum Body Weight loss (ES2 Tumor Xenograft): 16%
T − C (to reach 400% tumor volume increase) (ES2 Tumor Xenograft): 7.4 days
Toxic Deaths (ES2 Tumor Xenograft): 3
Median IC50 (BT-20 (Breast)): 0.0035 µg/mL
Median IC50 (LOX (melanoma)): 0.00492 µg/mL
Median IC50 (LS-513 (Cecum)): 0.016 µg/mL
Median IC50 [4]: 0.393 µg/mL
Median IC50 (U87-MG (Astrocytoma)): 0.0216 µg/mL
Median IC50 (ES-2 (ovarian carcinoma)): 0.00389 µg/mL
Median IC50 [5]: 0.0135 µg/mL
Median IC50 [6]: 0.0336 µg/mL
